Measurements: patent publication US10507201B2, “Use of ring-fused bicyclic pyridyl derivatives as FGFR4 inhibitors” (NOVARTIS AG, priority 2014, dated 2019)

Columns and labels:
[1] = tested on: JHH7 hepatocellular carcinoma cells; experiment: Methylene Blue Staining proliferation assay (MBS), JHH7; format: cell-based
Experimental: (§1) The effect of compounds on cell proliferation is assessed using HuH-7 hepatocellular carcinoma cells obtained from the Japanese Collection of Research Bioresources Cell Bank (Cat#JCRB0403) and cultured in the vendor-recommended medium (DMEM high glucose (Amimed Cat#1-26F01-I), 10% foetal calf serum (Invitrogen Cat#16140-071), 1 mM sodium pyruvate (Amimed Cat#5-60F00-H), 1× Penicillin/Streptomycin (Amimed Cat#4-01F00-H)) at 37° C. in a humidified 5% CO2 incubator. Specifically, 5000 cells/well were seeded in 96-well tissue culture plates (TPP Cat#92696) in a total media volume of 100 μl/well and increasing compound dilutions or DMSO were added 24 hours thereafter in triplicates. 72 hours after compound addition, cells were fixed by adding 25 μL/well of 20% glutaraldehyde (Sigma Aldrich Cat#G400-4) and incubated for 10 minutes at room temperature. Cells were washed three times with H2O, 200 μL/well and stained with 100 μL/well 0.05% methylene blue (ABCR GmbH Cat#AB117904) for 10 minutes at room temperature. Cells were washed 3 times with H2O, 200 μL/well and then lysed by adding 200 μL/well of 3% HCl (Fluka Cat#84422) for 30 minutes at room temperature with shaking. Optical density was measured at A650 nm.
(§2) The effect of compounds on cell proliferation using Hep 3B2.1-7 hepatocellular carcinoma cells, FU97 gastric cancer cells, JHH7 hepatocellular carcinoma cells or JHH6 hepatocellular carcinoma cells is assessed as above. Hep 3B2.1-7, FU97, JHH7 or JHH6 are obtained from the Japanese Collection of Research Bioresources Cell Bank. Hep 3B2.1-7 cells are cultured in EMEM+10% FCS+1 mM Na pyruvate+2 mM L-glutamine and 2000 cells/well are seeded for the proliferation assay. FU97 cells are cultured in DMEM high glucose+10% FCS+1 mM Na pyruvate+4 mM L-glutamine+1×ITS and 2000 cells/well are seeded for the proliferation assay. JHH6 and JHH7 cells are cultured in William's E+10% FCS+2 mM L-glutamine and 3000 cells are seeded for the proliferation assay.

[2] = tested on: HuH-7 hepatocellular carcinoma cells; experiment: Methylene Blue Staining proliferation assay (MBS), HuH-7; format: cell-based; conditions: Homo sapiens, HuH-7 cells, 72 hours after compound addition, read-out: HUH7 proliferation (nM) MBS
Experimental: Methylene Blue Staining Proliferation Assay (MBS):
(§3) 72 hours after compound addition, cells were fixed by adding 25 μL/well of 20% glutaraldehyde (Sigma Aldrich Cat#G400-4) and incubated for 10 minutes at room temperature. Cells were washed three times with H2O, 200 μL/well and stained with 100 μL/well 0.05% methylene blue (ABCR GmbH Cat#AB117904) for 10 minutes at room temperature. […] Optical density was measured at A650 nm.

[3] = tested on: HuH-7 hepatocellular carcinoma cells; experiment: CellTiter Glo (CTG) assay, HuH-7; conditions: Homo sapiens, Huh-7, 72 h, read-out: HUH7 proliferation (nM) CTG
Experimental: CellTiter Glo (CTG) Assay:
Compound-mediated suppression of cell proliferation/viability is assessed by quantification of cellular ATP levels using the CellTiter-Glo (CTG) reagent (Promega, Cat#G7573). […] For data analysis, the assay background value determined in wells containing medium, but no cells, is subtracted from all data points. […] The effect of a particular test compound concentration on cell proliferation/viability is expressed as percentage of the background- and day 0-corrected luminescence reading obtained for cells treated with vehicle only (DMSO, 0.1% f.c.), which is set as 100%, whereas the luminescence reading for wells containing medium only, but no cells, is set as −100%. Compound concentrations leading to half-maximal growth inhibition (GI50) are determined using standard four parameter curve fitting (XLfit 5.2., IDBS, UK).

[4] = tested on: FU97 gastric cancer cells; experiment: Methylene Blue Staining proliferation assay (MBS), FU97; format: cell-based
Experimental: as §1, §2

[5] = tested on: Hep 3B2.1-7 hepatocellular carcinoma cells; experiment: Methylene Blue Staining proliferation assay (MBS), Hep 3B2.1-7; format: cell-based; conditions: Homo sapiens, Hep3B, Hep 3B2.1-7 cells
Experimental: as §3, §2

Structure (SMILES) | IC50 [1] [nM] | IC50 [2] [nM] | IC50 [3] [nM] | IC50 [4] [nM] | IC50 [5] [nM]
N#Cc1ccc(NC(=O)N2CCCc3cc(CO)c(C=O)nc32)nc1 [Example 27, N-(5-cyanopyridin-2-yl)-7-formyl-6-(hydroxymethyl)-3,4-dihydro-1,8-naphthyridine-1(2H)-carboxamide] | > 3000 | – | – | – | –
COCCOc1cc(NC(=O)N2CCCc3cc(CO)c(C=O)nc32)ncc1C#N [Example 39, N-(5-cyano-4-(2-methoxyethoxy)pyridin-2-yl)-7-formyl-6-(hydroxymethyl)-3,4-dihydro-1,8-naphthyridine-1(2H)-carboxamide] | > 3000 | 123 | 569 | – | –
N#Cc1cnc(NC(=O)N2CCCc3cc(CO)c(C=O)nc32)cc1O[C@H]1CCOC1 [Example 50, (S)—N-(5-cyano-4-((tetrahydrofuran-3-yl)oxy)pyridin-2-yl)-7-formyl-6-(hydroxymethyl)-3,4-dihydro-1,8-naphthyridine-1(2H)-carboxamide] | 484 | 270 | – | 234 | –
COCCOc1cc(NC(=O)N2CCCc3cc(C(F)F)c(C=O)nc32)ncc1C#N [Example 63, N-(5-cyano-4-(2-methoxyethoxy)pyridin-2-yl)-6-(difluoromethyl)-7-formyl-3,4-dihydro-1,8-naphthyridine-1(2H)-carboxamide] | > 3000 | – | – | – | –
CC(=O)N(C)Cc1cc2c(nc1C=O)N(C(=O)Nc1ccc(C#N)cn1)CCC2 [Example 68, N-(5-cyanopyridin-2-yl)-7-formyl-6-((N-methylacetamido)methyl)-3,4-dihydro-1,8-naphthyridine-1(2H)-carboxamide] | > 3000 | – | – | – | > 3000
COCCNc1cc(NC(=O)N2CCCc3cc(CO)c(C=O)nc32)ncc1C#N [Example 80, N-(5-cyano-4-((2-methoxyethyl)amino)pyridin-2-yl)-7-formyl-6-(hydroxymethyl)-3,4-dihydro-1,8-naphthyridine-1(2H)-carboxamide] | 150 | – | 168 | 96 | –
COCCNc1cc(NC(=O)N2CCCc3cc(CN4CCN(C)CC4=O)c(C=O)nc32)ncc1C#N [Example 83, N-(5-cyano-4-((2-methoxyethyl)amino)pyridin-2-yl)-7-formyl-6-((4-methyl-2-oxopiperazin-1-yl)methyl)-3,4-dihydro-1,8-naphthyridine-1(2H)-carboxamide] | 9 | 12 | 60.9 | 23 | 1
CC(C)Oc1cc(NC(=O)N2CCCc3cc(CN4CCN(C)CC4=O)c(C=O)nc32)ncc1C#N [Example 92, N-(5-cyano-4-isopropoxypyridin-2-yl)-7-formyl-6-((4-methyl-2-oxopiperazin-1-yl)methyl)-3,4-dihydro-1,8-naphthyridine-1(2H)-carboxamide] | – | – | 38 | – | –
COCCOc1cc(NC(=O)N2CCCc3cc(CN4CCN(C)CC4=O)c(C=O)nc32)ncc1C#N [Example 101, N-(5-cyano-4-(2-methoxyethoxy)pyridin-2-yl)-7-formyl-6-((4-methyl-2-oxopiperazin-1-yl)methyl)-3,4-dihydro-1,8-naphthyridine-1(2H)-carboxamide] | – | 82 | 142 | – | –
COC[C@@H](C)Oc1cc(NC(=O)N2CCCc3cc(CN4CCN(C)CC4=O)c(C=O)nc32)ncc1C#N [Example 205, (R)—N-(5-cyano-4-((1-methoxypropan-2-yl)oxy)pyridin-2-yl)-7-formyl-6-((4-methyl-2-oxopiperazin-1-yl)methyl)-3,4-dihydro-1,8-naphthyridine-1(2H)-carboxamide] | – | – | 17.8 | – | 5
